The values below come from patent US12325690B2, “Compounds for the reducing lipotoxic damage” (Mayo Foundation for Medical Education and Research, priority 2017, dated 2025).

The structures appear in SMILES notation. “Also recorded” adds a separate entry of the source. Where only a bound is given, the exact number is not on record here.

Data set [1] concerns the target T1, recombinant human pancreatic tri-acyl glycerol lipase [PNLIP; hPTL] (Homo sapiens, UniProt P16233).
T1 sequence (P16233 17-465): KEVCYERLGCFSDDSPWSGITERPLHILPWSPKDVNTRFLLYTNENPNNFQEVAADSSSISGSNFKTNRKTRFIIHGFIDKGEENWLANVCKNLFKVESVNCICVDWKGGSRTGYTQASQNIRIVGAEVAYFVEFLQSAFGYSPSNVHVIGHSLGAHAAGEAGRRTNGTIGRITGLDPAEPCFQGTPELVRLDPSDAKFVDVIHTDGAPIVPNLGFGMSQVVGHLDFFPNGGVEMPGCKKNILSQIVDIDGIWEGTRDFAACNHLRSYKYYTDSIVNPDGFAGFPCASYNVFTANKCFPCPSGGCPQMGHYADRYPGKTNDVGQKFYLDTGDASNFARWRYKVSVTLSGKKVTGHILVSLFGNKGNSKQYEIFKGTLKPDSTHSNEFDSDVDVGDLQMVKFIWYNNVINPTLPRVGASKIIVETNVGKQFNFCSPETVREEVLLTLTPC
T1 sequence (P04118 23-112 partner): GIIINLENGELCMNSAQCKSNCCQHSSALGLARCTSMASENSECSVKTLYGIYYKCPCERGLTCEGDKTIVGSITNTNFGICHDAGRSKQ
The experiment in a line: FFA generation from glyceryl trilinoleate by recombinant hPNLIP with colipase. In kind it is biochemical. The protocol: (§1) The efficacy of a selection of the prepared analogs was explored to determine their ability to inhibit free fatty acid (FFA) generation from recombinant human lipases while retaining stability. To test these features, the analogs were dissolved in ethanol (200 mM stock) and further diluted to a 600 micromolar (0.3% ethanol) working stock in PBS. The agents were incubated with the recombinant enzymes in serial ⅓ dilutions spanning a range of 200 to 0.3 micromolar for 30 minutes, and then added to the substrate 1 mM glyceryl trilinoleate (GTL) in PBS, pH 7.4 along with cofactor colipase (CLPS; 0.5 mcg/ml).

Data set [2] relates to Propionibacterium acnes (Strain VPI0389, ATCC). The experiment in a line: Lipolysis / FFA generation by P. acnes culture. In kind it is cell-based. The settings on record: broth FFA generation and spirit blue agar. As to the method:
For medium, 2.0 g of Casein hydrolysate enzymatic digest (Cat #12855, Affymetrix Inc, Ohio, USA), 1.0 g of Yeast extract (Cat #61180-5000, Acros organics, New Jersey, USA) and 0.03 g of Victoria Blue B (Cat #sc-216055, Santa Crutz Biotechnology Inc, California, USA) were dissolved completely in 200 ml of double distilled water with mild heating. The mixed solution was sterilized by autoclaving at 15 lbs pressure (121° C.) for 15 min. The autoclaved solution allowed to cool down to 50° C., then 6 ml of emulsified lipase substrate slowly added with continuous stirring to get an even distribution and stored at 4° C. for P. acnes culture.
Lipase substrate preparation: Lipase substrate was prepared by mixing 200 μl of Tween 80 (Cat #P4780, Sigma, St louis, USA) in 100 ml of warm double distilled water and 25 ml of Cotton seeds oil (Cat #C0145, Spectrum chemical, California, USA). […]
A small part of lyophilized Propionibacterium acnes (Strain VPI0389, ATCC) was added to the medium and allowed to grow at 37° C. for 48 h in a BD GasPak EZ standard incubation container (Cat #260671, Beckton Dickinson, MD, USA) with two anaerobe Sachets (Cat #260683, Beckton Dickinson, MD, USA) which maintained the anaerobic condition within the container. After 48 h of culture, bacterial count was measured by turbidity (OD600 nm) method. […]

The test system of data set [3] is ob/ob mice with severe pancreatitis. The data set can be described thus: Caerulein-induced severe pancreatitis in obese ob/ob mice. The settings on record: 20 mg/kg single intraperitoneal dose.
Protocol: Genetically obese male ob/ob mice (50-60 gm) were used and baseline tail vein blood draw was collected for serum lipase, triglycerides, and BUN (blood urea nitrogen). […] Severe pancreatitis was induced by implanting an alzet pump subcutaneously containing 2.5 mg/ml caerulein, which was administered at a dose of 50 mc/kg/hr. Six hours later a tail vein sample (50 microliters) was tested for serum lipase to verify an increase >3 fold basal.
Animals were sacrificed if they were moribund.
For data set [4], the target named is T2, recombinant human pancreatic lipase related protein 2 (hPLRP2) (Homo sapiens, UniProt P54317).
T2 sequence (P54317 18-469): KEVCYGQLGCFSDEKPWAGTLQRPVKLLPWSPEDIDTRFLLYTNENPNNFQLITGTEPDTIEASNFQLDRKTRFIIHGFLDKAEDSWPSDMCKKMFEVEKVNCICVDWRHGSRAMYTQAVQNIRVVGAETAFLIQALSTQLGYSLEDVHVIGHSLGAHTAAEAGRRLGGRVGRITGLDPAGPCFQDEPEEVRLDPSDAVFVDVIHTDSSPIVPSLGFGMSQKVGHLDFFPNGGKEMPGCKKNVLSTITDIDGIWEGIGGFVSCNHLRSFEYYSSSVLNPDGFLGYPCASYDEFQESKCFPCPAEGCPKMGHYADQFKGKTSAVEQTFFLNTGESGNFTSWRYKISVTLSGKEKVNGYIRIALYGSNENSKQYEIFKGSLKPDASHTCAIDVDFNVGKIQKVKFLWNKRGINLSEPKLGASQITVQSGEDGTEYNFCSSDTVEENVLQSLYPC
The data set can be described thus: FFA generation by recombinant hPLRP2. The data set is classed as biochemical. Conditions: % FFA generation; read-out: IC50 against hPLRP2. As to the method: as §1
(§2) These lipases form 15-30% of pancreatic lipases.

Data set [5] has as its target T3, carboxyester lipase (hCEL) (Homo sapiens, UniProt P19835).
T3 sequence (P19835 21-753): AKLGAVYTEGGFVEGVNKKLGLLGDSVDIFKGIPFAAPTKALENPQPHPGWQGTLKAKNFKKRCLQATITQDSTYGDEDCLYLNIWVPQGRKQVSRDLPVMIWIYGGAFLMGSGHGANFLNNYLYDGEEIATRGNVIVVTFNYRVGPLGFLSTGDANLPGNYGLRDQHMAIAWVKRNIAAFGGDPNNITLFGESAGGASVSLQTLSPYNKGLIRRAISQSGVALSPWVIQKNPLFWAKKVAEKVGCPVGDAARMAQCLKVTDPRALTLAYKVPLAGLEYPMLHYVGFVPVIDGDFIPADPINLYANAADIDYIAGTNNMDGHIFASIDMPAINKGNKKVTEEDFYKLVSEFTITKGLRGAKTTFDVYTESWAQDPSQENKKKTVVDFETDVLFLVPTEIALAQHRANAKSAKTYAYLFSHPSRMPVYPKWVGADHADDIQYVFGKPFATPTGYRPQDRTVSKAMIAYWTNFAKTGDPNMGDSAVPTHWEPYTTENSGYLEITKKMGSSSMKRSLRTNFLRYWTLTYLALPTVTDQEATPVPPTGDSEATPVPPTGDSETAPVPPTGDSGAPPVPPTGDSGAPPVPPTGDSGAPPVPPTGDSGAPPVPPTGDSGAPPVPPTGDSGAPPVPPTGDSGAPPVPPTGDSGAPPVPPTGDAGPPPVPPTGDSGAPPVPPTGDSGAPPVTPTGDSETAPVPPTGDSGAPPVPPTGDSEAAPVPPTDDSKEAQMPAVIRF
The experiment in a line: FFA generation by recombinant hCEL. In kind it is biochemical. The settings on record: % FFA generation; read-out: IC50 against hCEL. As to the method:
as §1, §2

The test system of data set [6] is Mouse pancreatic acinar cells. The data set can be described thus: Toxicity study in pancreatic acinar cells (ATP levels, LDH leakage). In kind it is cell-based. Conditions: 4 hours, 20-200 micromolar range. As to the method: Toxicity studies of the relevant compounds were also performed using by diluting the original ethanol stock 200 mM into the incubation medium for acinar cells (HEPES buffer, pH 7.4, as described by Navina et al) 600 micromolar stock solutions of the compounds in 0.3% ethanol in PBS. These were added to acinar cells at ⅓ dilutions starting at 200 micromolar. Mouse pancreatic acinar ATP levels and LDH leakage were measured over 4 hours and compared to control. Any number positive over control indicates % injury greater than control acini.
(In general: Release of lactate dehydrogenase indicates damage to the cell membrane.)

The target of another data set is T4, pancreatic lysate lipase (Mus musculus, UniProt Q6P8U6).
T4 construct: efficacy against mouse pancreatic lysates; other: summary of strengths of 767; efficacy as a solution when left overnight; other: solution left overnight; efficacy in the lipase activity assay compared with orlistat when fresh; other: fresh solution; IC50 of orlistat after overnight incubation (nearest tested concentration); other: after overnight incubation; improvement in stability and e
T4 sequence (Q6P8U6 17-465): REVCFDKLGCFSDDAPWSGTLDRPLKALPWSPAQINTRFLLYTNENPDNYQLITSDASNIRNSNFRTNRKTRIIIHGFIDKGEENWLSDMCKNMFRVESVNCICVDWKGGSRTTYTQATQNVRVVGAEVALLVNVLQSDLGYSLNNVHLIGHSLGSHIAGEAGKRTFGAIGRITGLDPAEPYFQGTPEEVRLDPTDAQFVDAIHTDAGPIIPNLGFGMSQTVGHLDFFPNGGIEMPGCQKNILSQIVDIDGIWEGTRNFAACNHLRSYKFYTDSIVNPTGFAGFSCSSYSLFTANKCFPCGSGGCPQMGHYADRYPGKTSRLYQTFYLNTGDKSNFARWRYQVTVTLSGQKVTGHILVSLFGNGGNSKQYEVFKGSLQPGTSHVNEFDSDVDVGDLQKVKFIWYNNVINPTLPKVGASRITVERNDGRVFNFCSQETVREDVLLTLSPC
The experiment in a line: Lipase activity assay with pancreatic lysate (commercial Pointe scientific lipase assay). The data set is classed as biochemical. As to the method:
To test the efficacy of these compounds, the agents were dissolved as a 20 mM stock in ethanol, and further diluted to in PBS as a 600 micromolar working stock (3.3% ethanol). This was either used immediately or left at room temperature for 16-20 hours overnight before retesting efficacy. The agents were incubated with a pancreatic lysate in serial ⅓ dilutions spanning a range of 200 to 0.3 micromolars for 30 minutes. 5 microliters of these mixtures were then used to measure lipase activity using a commercial lipase assay (Pointe scientific) containing a monoacyl glycerol lipase in the reagent. The lipase assay was done using reagents in proportion to the recommended protocol. Values were depicted as % maximal lipase activity of the well without any inhibitor.

In data set [7] the test system is acinar cells incubated with GTL. The data set can be described thus: GTL induced acinar injury (LDH leakage). The data set is classed as cell-based. The settings on record: 10 micromolar.
Text: as §2

What is called IC50 is the midpoint of a concentration-inhibition curve. For `CCCCCCCCCCC[C@@H](C[C@@H]1OC(=O)[C@H]1CC)OC(=O)[C@H](C)NC=O` [Compound 767], in data set [1] (in the presence of colipase (CLPS), 1 mM GTL substrate), the “IC50 against hPNLIP, fold lower than orlistat or 741” value is listed as 50 ×. The “stability in aqueous solution” value in data set [1] (retention of inhibition after overnight storage) is listed as “best stability; also recorded: better stability in aqueous media”. Also, the IC50 in data set [1] (solution stored overnight, with colipase, read-out: IC50 against hPNLIP when stored overnight) was below 2000 nM. In addition, the “potency against the most prevalent lipase (hPTL)” value in data set [1] (summary of strengths of 767) was “higher potency”. Moreover, in data set [2], the “lipolysis by P. acnes” value is reported as “inhibited”. Besides, in data set [3], the 5 day survival is 8/8; the “PD (pulse distention, shock)” value is reported as 290±20 μm; the UFAs came out at 2.4 ± 0.4 mM; the hypertriglyceridemia result is reported as “without the hypertriglyceridemia”. In data set [3], the “leucopenia (mice affected)” value was 0/8, the serum calcium turned out to be 8.8 ± 1.0 mg/dL and the “temperature (hypothermia)” value worked out at 94.1±0.8 ° F. The “BUN (peak)” value in data set [3] (caerulein pancreatitis) was 18.5 ± 0.9 mg/dL. In addition, the IC50 in data set [4] was at most 2000 nM. The IC50 in data set [5] was at most 2000 nM. Also, the “toxicity to acinar cells” value in data set [6] is “lower toxicity”. In addition, the “efficacy in the lipase activity assay compared with orlistat when fresh” value at pancreatic lysate lipase (fresh solution) is given as “equivalent efficacy”. Besides, the “efficacy as a solution when left overnight” value at pancreatic lysate lipase (solution left overnight) was “significantly retained its efficacy”. Besides, the “efficacy against mouse pancreatic lysates” value at pancreatic lysate lipase (summary of strengths of 767) was “higher efficacy”. The “efficacy in reducing GTL induced acinar injury compared with orlistat” value in data set [7] (LDH leakage) is “more efficacious”. Besides, the “toxicity compared with orlistat” value in data set [7] (acinar cells) is reported as “less toxic”.
